From patent US4565823A, “Medical agent for suppressing arteriosclerosis” (Yamanouchi Pharmaceutical Co., Ltd., priority 1982, dated 1986)
Structures can show the parent of a compound that is named as a salt.

Legend:
[1] = tested on: cholesterol levels in the serum; test: Effect on cholesterol levels in the serum (normal rats); assay type: in vivo; settings: oral
[2] = tested on: cholesterol levels in the serum; test: Effect on cholesterol levels in the serum (hypercholesterolemia rats); assay type: in vivo, Male Sprague-Dawley rats; settings: for HDL chol. / HDL chol. / LDL + VLDL chol. / LDL + VLDL chol. / T. chol. (total cholesterol): oral; for effect on HDL cholesterol (words) / effect on total cholesterol in the serum (words): rat, in vivo
Description: Male Sprague-Dawley rats (JCL®, Nippon Clea Co. Ltd., Tokyo, Japan) weighing 90-100 g were fed semipurified diet containing 10% coconut oil, 1.5% cholesterol and 0.5% cholic acid. Three days after the start of feeding, the rats are allocated at random by the body weight to multiple groups each consisting 6-8 rats. On day 4 through 7, the drug suspension in 0.5% methylcellulose was orally given daily. […] Following the final dose, the rats were fasted overnight (approximately 16 hours). […] Serum was obtained by centrifugation at 1,600 xg for 15 min and stored at 4° C. in plastic tubes. The amount of total cholesterol and HDL cholesterol in the serum were determined. The determination of the total cholesterol was practiced by the method described in Schettler, G & Nussel; "Arbeitsmed. Sozialmed. Praventivmed." 10, 25 (1975) and the determination of HDL cholesterol was practiced by the method described in T. T. Ishikawa et al; "Lipids", 11, 628 (1976).

[3] = tested on: mice, rats, dog; test: acute toxicity examination (overall statement); settings: in vivo
Excerpt: (§1) Nicardipine hydrochloride is a low toxicity compound, and this fact is confirmed by acute toxicity examination experiment.

[4] = acute toxicity, rats (Wister); settings: rat, in vivo
Excerpt: as §1

[5] = acute toxicity, mice (ICR); settings: mouse, in vivo
Excerpt: as §1

[6] = acute toxicity, dog (mongrel); assay type: in vivo; settings: in vivo, iv, only a range in parentheses printed
Excerpt: as §1

[7] = tested on: dog (mongrel); test: acute toxicity, dog (mongrel); assay type: in vivo; settings: p.o.
Excerpt: as §1

[8] = acute toxicity, rats (S.D.); settings: rat, in vivo
Excerpt: as §1

[9] = tested on: aortic smooth muscle cell; test: 12-HETE-associated aortic smooth muscle cell migration, filter membrane technique in modified Boyden chambers; assay type: cell-based; settings: 6×10^-15 g/ml 12-HETE, 37° C.
Excerpt: The effect of nicardipine on 12-HETE-associated aortic smooth muscle cell migration can be examined by measuring the migration of aortic smooth muscle cell by filter membrane technique in modified Boyden chambers as follows:
5×10^5 of the smooth muscle cells were suspended in Ca^2+ -containing culture medium supplemented with 5% calf serum containing various concentration of nicardipine. Control cultures contained the same volume, a final concentration of 1% (v/v), of […]. The suspensions of the smooth muscle cells were placed in the upper compartment of the chamber. The lower compartment of the chamber contained the same culture medium supplemented with 6×10^-15 g/ml of 12-HETE and 5% calf serum containing no nicardipine. The cells was incubated at 37° C. As control, medium with the same concentration of solvent (1% ethanol) containing no 12-HETE was used. Smooth muscle cell migration was quantitated microscopically by counting the number of cells that migrated into the filter. In each experiment, 10 high-power fields in 5 replicate cultures were examined to determine the number of cells that had migrated into the filers. Cell migration was expressed as cells/10 HPF (high-power fields) in FIG. 1.

[10] = hypercholesterolemia rats, 50 mg/kg
[11] = hypercholesterolemia rats, 100 mg/kg
[12] = hypercholesterolemia rats, 200 mg/kg
[13] = hypercholesterolemia rats, 10 mg/kg
[14] = hypercholesterolemia rats, 30 mg/kg
[15] = listed as nicardipine hydrochloride

In the case of `CCOC(=O)C(C)(C)Oc1ccc(Cl)cc1` [clofibrate], the HDL chol. ([1]; 50 mg/kg) was 26.5 ± 2.5 mg/dL, the “HDL chol. / LDL + VLDL chol.” value ([1]; 50 mg/kg) was 1.828 and the “LDL + VLDL chol.” value ([1]; 50 mg/kg) was 14.5 ± 1.0 mg/dL. For the same compound, the “T. chol. (total cholesterol)” value ([1]; 50 mg/kg) was 42.7 ± 2.3 mg/dL, the HDL chol. ([1]; 100 mg/kg) was 30.3 ± 3.1 mg/dL and the “HDL chol. / LDL + VLDL chol.” value ([1]; 100 mg/kg) was 3.258. The “LDL + VLDL chol.” value ([1]; 100 mg/kg) was 9.3 ± 1.5 mg/dL, the “T. chol. (total cholesterol)” value ([1]; 100 mg/kg) was 39.7 ± 2.7 mg/dL and the HDL chol. ([1]; 200 mg/kg) was 22.8 ± 2.7 mg/dL. For the same compound, the “HDL chol. / LDL + VLDL chol.” value ([1]; 200 mg/kg) was 1.664, the “LDL + VLDL chol.” value ([1]; 200 mg/kg) was 13.7 ± 2.1 mg/dL and the “T. chol. (total cholesterol)” value ([1]; 200 mg/kg) was 36.5 ± 4.4 mg/dL. For the same compound, the HDL chol. [2, 10] was 13.8 ± 1.0 mg/dL, the “HDL chol. / LDL + VLDL chol.” value [2, 10] was 0.036 and the “LDL + VLDL chol.” value [2, 10] was 379.6 ± 92.6 mg/dL. The “T. chol. (total cholesterol)” value [2, 10] was 412.0 ± 77.8 mg/dL, the HDL chol. [2, 11] was 21.0 ± 2.5 mg/dL and the “HDL chol. / LDL + VLDL chol.” value [2, 11] was 0.100. The “LDL + VLDL chol.” value [2, 11] was 210.4 ± 55.8 mg/dL, the “T. chol. (total cholesterol)” value [2, 11] was 231.0 ± 54.2 mg/dL and the HDL chol. [2, 12] was 19.3 ± 2.8 mg/dL. For the same compound, the “HDL chol. / LDL + VLDL chol.” value [2, 12] was 0.065, the “LDL + VLDL chol.” value [2, 12] was 298.0 ± 66.2 mg/dL and the “T. chol. (total cholesterol)” value [2, 12] was 317.4 ± 64.4 mg/dL.

With `COC(=O)C1=C(C)NC(C)=C(C(=O)OCCN(C)Cc2ccccc2)C1c1cccc([N+](=O)[O-])c1` (centres unmarked) [Nicardipine hydrochloride] the HDL chol. ([1]; 10 mg/kg) was 29.6 ± 1.4 mg/dL, the “HDL chol. / LDL + VLDL chol.” value ([1]; 10 mg/kg) was 3.020 and the “LDL + VLDL chol.” value ([1]; 10 mg/kg) was 9.8 ± 1.9 mg/dL. For the same compound, the “T. chol. (total cholesterol)” value ([1]; 10 mg/kg) was 39.4 ± 2.0 mg/dL, the HDL chol. ([1]; 30 mg/kg) was 37.2 ± 2.7 mg/dL and the “HDL chol. / LDL + VLDL chol.” value ([1]; 30 mg/kg) was 10.941. For the same compound, the “LDL + VLDL chol.” value ([1]; 30 mg/kg) was 3.4 ± 1.6 mg/dL, the “T. chol. (total cholesterol)” value ([1]; 30 mg/kg) was 41.3 ± 4.7 mg/dL and the HDL chol. ([1]; 100 mg/kg) was 39.8 ± 4.3 mg/dL. The “HDL chol. / LDL + VLDL chol.” value ([1]; 100 mg/kg) was 14.214, the “LDL + VLDL chol.” value ([1]; 100 mg/kg) was 2.8 ± 1.2 mg/dL and the “T. chol. (total cholesterol)” value ([1]; 100 mg/kg) was 40.8 ± 5.9 mg/dL. For the same compound, the “acute toxicity” value [3] was “low toxicity”, the LD50 ([4]; iv, rats (Wister) female) was 17.2 mg/kg and the LD50 ([4]; iv, rats (Wister) male) was 15.5 mg/kg. It also gave an LD50 ([4]; po, rats (Wister) female) of 184 mg/kg, an LD50 ([4]; po, rats (Wister) male) of 187 mg/kg and an LD50 ([4]; sc, rats (Wister) female) of 606 mg/kg. For the same compound, the LD50 ([4]; sc, rats (Wister) male) was 677 mg/kg, the LD50 ([5]; iv, mice (ICR) female) was 19.9 mg/kg and the LD50 ([5]; po, mice (ICR) female) was 650 mg/kg. For the same compound, the LD50 ([5]; po, mice (ICR) male) was 634 mg/kg, the LD50 ([5]; sc, mice (ICR) female) was 710 mg/kg and the LD50 ([5]; sc, mice (ICR) male) was 540 mg/kg. For the same compound, the “effect on LDL chol” value ([2]; hypercholesterolemia rats) was “reduces remarkably LDL chol”, the HDL chol. [2, 13] was 27.0 ± 1.8 mg/dL and the “HDL chol. / LDL + VLDL chol.” value [2, 13] was 0.090. For the same compound, the “LDL + VLDL chol.” value [2, 13] was 299.4 ± 52.8 mg/dL, the “T. chol. (total cholesterol)” value [2, 13] was 326.4 ± 52.0 mg/dL and the HDL chol. [2, 14] was 28.0 ± 0.5 mg/dL. The “HDL chol. / LDL + VLDL chol.” value [2, 14] was 0.067, the “LDL + VLDL chol.” value [2, 14] was 420.6 ± 53.2 mg/dL and the “T. chol. (total cholesterol)” value [2, 14] was 448.6 ± 52.8 mg/dL. For the same compound, the HDL chol. [2, 11] was 47.0 ± 1.8 mg/dL, the “HDL chol. / LDL + VLDL chol.” value [2, 11] was 0.250 and the “LDL + VLDL chol.” value [2, 11] was 188.0 ± 26.4 mg/dL. The “T. chol. (total cholesterol)” value [2, 11] was 246.0 ± 24.6 mg/dL, the “effect on HDL cholesterol (words)” value [2, 15] was “increases selectively HDL chol” and the “effect on total cholesterol in the serum (words)” value [2, 15] was “reduce the amount of total cholesterol in the serum”. For the same compound, the LD50 [6] was 5 to 8.1 mg/kg, the MLD [7] was > 60 mg/kg and the LD50 ([8]; iv, rats (S.D.) female) was 25 mg/kg. For the same compound, the LD50 ([8]; iv, rats (S.D.) male) was 18.1 mg/kg, the LD50 ([8]; po, rats (S.D.) female) was 557 mg/kg and the LD50 ([8]; po, rats (S.D.) male) was 643 mg/kg.

For `COC(=O)C1=C(C)NC(C)=C(C(=O)OCCN(C)Cc2ccccc2)C1c1cccc([N+](=O)[O-])c1` (centres unmarked) [nicardipine], the “effect on HDL cholesterol (words)” value [2] was “elevating high density lipoprotein (HDL) selectivity”, the “effect on total cholesterol in the serum (words)” value [2] was “reducing cholesterol level increased in the serum” and the “inhibition of 12-HETE-associated aortic smooth muscle cell migration” value [9] was “inhibits 12-HETE-associated aortic smooth muscle cell migration (aortic smooth muscle cell migration induced by 12-L-hydroxy-5,8,10,14-eicosotetraenoic acid) significantly”.

In the case of `COc1ccc(Cc2nccc3cc(OC)c(OC)cc23)cc1OC` [papaverine], the LD50 ([4]; iv, rats (Wister) male) was 13.3 mg/kg and the LD50 ([5]; iv, mice (ICR) male) was 27 mg/kg.
